Experimental data published in patent US4156724A, “N-acylamino-alpha-arylacetamido cephalosporins and antibacterial compositions and methods containing them” (Sumitomo Chemical Company, Limited, priority 1974, dated 1979).
≈ marks a conversion by molar mass, not a printed value.

Assays:
Assay type in all cases: cell-based
[1] = system: Staphylococcus aureus FS 289; assay: Minimum Inhibitory Concentration, Staphylococcus aureus FS 289; conditions: Staphylococcus aureus FS 289, strain resistant to penicillin; for MIC: FS289, read-out: Minimum Inhibitory Concentration
Experimental: (§1) anti-microbial activity tests were carried out on the compounds obtained in the Examples.
*Staphylococcus aureus FS 289: strain resistant to penicillin

Proteus vulgaris HX 19 = assay: Minimum Inhibitory Concentration, Proteus vulgaris HX 19; conditions: Proteus vulgaris HX 19; for MIC: HX19, read-out: Minimum Inhibitory Concentration
Experimental: as §1

[2] = system: Klebsiella pneumoniae 602; assay: Minimum Inhibitory Concentration, Klebsiella pneumoniae 602; conditions: for Minimum Inhibitory Concentration: Klebsiella pneumoniae 602; for MIC: Klebsiella pneumoniae, 602, Klebsiella pneumoniae 602, read-out: Minimum Inhibitory Concentration
Experimental: as §1

Serratia No. 72 = assay: Minimum Inhibitory Concentration, Serratia No. 72
Experimental: as §1

[3] = system: Pseudomonas aeruginosa 104; assay: Minimum Inhibitory Concentration, Pseudomonas aeruginosa 104; conditions: Pseudomonas aeruginosa 104; for MIC: read-out: Minimum Inhibitory Concentration
Experimental: as §1

[4] = system: Enterobacter aerogeneus No. 75; assay: Minimum Inhibitory Concentration, Enterobacter aerogeneus No. 75; conditions: Enterobacter aerogeneus No. 75; for MIC: read-out: Minimum Inhibitory Concentration
Experimental: as §1

[5] = system: Staphylococcus aureus 209 P; assay: Minimum Inhibitory Concentration, Staphylococcus aureus 209 P; conditions: Staphylococcus aureus 209 P; for MIC: read-out: Minimum Inhibitory Concentration
Experimental: as §1

Escherichia coli NIHJ = assay: Minimum Inhibitory Concentration, Escherichia coli NIHJ; conditions: Escherichia coli NIHJ; for MIC: read-out: Minimum Inhibitory Concentration
Experimental: as §1

Row | SMILES | Minimum Inhibitory Concentration [1] [µg/mL] | Minimum Inhibitory Concentration (Proteus vulgaris HX 19) [µg/mL] | Minimum Inhibitory Concentration [2] [µg/mL] | Minimum Inhibitory Concentration (Serratia No. 72) [µg/mL] | Minimum Inhibitory Concentration [3] [µg/mL] | Minimum Inhibitory Concentration [4] [µg/mL] | Minimum Inhibitory Concentration [5] [µg/mL] | Minimum Inhibitory Concentration (Escherichia coli NIHJ) [µg/mL] | MIC [1] [µg/mL] | MIC (Proteus vulgaris HX 19) [µg/mL] | MIC [2] [µg/mL] | MIC (Serratia No. 72) [µg/mL] | MIC [3] [µg/mL] | MIC [4] [µg/mL] | MIC [5] [µg/mL] | MIC (Escherichia coli NIHJ) [µg/mL]
1 | CC(=O)OCC1=C(C(=O)[O-])N2C(=O)C(NC(=O)C(NC(=O)c3cnc4ncncc4c3O)c3ccc(O)cc3)C2SC1.[Na+] (stereo not drawn) [Example 139] | 12.5 | 3.13 | 6.25 | 50 | 12.5 | 50 | 1.56 | 12.5 |  |  |  |  |  |  |  | 
2 | CSc1cnc2c(O)c(C(=O)NC(C(=O)NC3C(=O)N4C(C(=O)[O-])=C(COC(C)=O)CSC34)c3cccc(O)c3)cnc2n1.[Na+] (stereo not drawn) [Example 140] | 6.25 | 1.56 | 6.25 | 50 | 6.25 | 12.5 | 0.78 | 3.13 |  |  |  |  |  |  |  | 
3 | CC(=O)OCC1=C(C(=O)[O-])N2C(=O)C(NC(=O)C(NC(=O)c3cnc4cncnc4c3O)c3ccc(O)cc3)C2SC1.[Na+] (stereo not drawn) [Example 141] | 6.25 | 0.78 | 6.25 | 50 | 6.25 | 12.5 | 0.78 | 6.25 |  |  |  |  |  |  |  | 
4 | CC(=O)OCC1=C(C(=O)[O-])N2C(=O)C(NC(=O)C(NC(=O)c3cnc4cccnc4c3O)c3ccc(O)c(O)c3)C2SC1.[Na+] (stereo not drawn) [Example 142] | 6.25 | 0.78 | 3.13 | 50 | 6.25 | 6.25 | 1.56 | 3.13 |  |  |  |  |  |  |  | 
5 | COc1cc(C(NC(=O)c2cnc3cccnc3c2O)C(=O)NC2C(=O)N3C(C(=O)[O-])=C(COC(C)=O)CSC23)ccc1O.[Na+] (stereo not drawn) [Example 143] | 12.5 | 0.78 | 3.13 | 100 | 6.25 | 12.5 | 3.13 | 6.25 |  |  |  |  |  |  |  | 
6 | CC(=O)OCC1=C(C(=O)[O-])N2C(=O)C(NC(=O)C(NC(=O)c3cnc4cccnc4c3O)c3cc(Cl)c(O)c(Cl)c3)C2SC1.[Na+] (stereo not drawn) [Example 144] | 12.5 | 1.56 | 6.25 | 100 | 6.25 | 12.5 | 3.13 | 6.25 |  |  |  |  |  |  |  | 
7 | CC(=O)OCC1=C(C(=O)[O-])N2C(=O)C(NC(=O)C(NC(=O)c3cnc4cccnc4c3O)c3ccc(O)c(F)c3)C2SC1.[Na+] (stereo not drawn) [Example 145] | 6.25 | 0.39 | 3.13 | 100 | 6.25 | 12.5 | 0.78 | 3.13 |  |  |  |  |  |  |  | 
8 | CSc1cnc2c(O)c(C(=O)N[C@@H](C(=O)NC3C(=O)N4C(C(=O)O)=C(CSc5nnnn5C)CSC34)c3ccc(O)cc3)cnc2n1 (stereo partly drawn) [Example 146] |  |  |  |  |  |  |  |  | 12.5 (≈ 17.9 µM) | 1.56 (≈ 2.24 µM) | 3.13 (≈ 4.49 µM) | 25 (≈ 35.9 µM) | 3.13 (≈ 4.49 µM) | 6.25 (≈ 8.97 µM) | 0.78 (≈ 1.12 µM) | 1.56 (≈ 2.24 µM)
9 | Cn1nnnc1SCC1=C(C(=O)O)N2C(=O)C(NC(=O)[C@H](NC(=O)c3cnc4nc(N5CCCC5)cnc4c3O)c3ccc(O)cc3)C2SC1 (stereo partly drawn) [Example 147] |  |  |  |  |  |  |  |  | 12.5 (≈ 17.4 µM) | 1.56 (≈ 2.17 µM) | 3.13 (≈ 4.35 µM) | 25 (≈ 34.7 µM) | 3.13 (≈ 4.35 µM) | 6.25 (≈ 8.68 µM) | 1.56 (≈ 2.17 µM) | 3.13 (≈ 4.35 µM)
10 | Cc1nnc(SCC2=C(C(=O)O)N3C(=O)C(NC(=O)[C@H](NC(=O)c4cnc5nc(C)c(C)nc5c4O)c4ccc(O)cc4)C3SC2)s1 (stereo partly drawn) [Example 148] |  |  |  |  |  |  |  |  | 12.5 (≈ 18 µM) | 1.56 (≈ 2.25 µM) | 3.13 (≈ 4.51 µM) | 25 (≈ 36 µM) | 3.13 (≈ 4.51 µM) | 6.25 (≈ 9 µM) | 1.56 (≈ 2.25 µM) | 3.13 (≈ 4.51 µM)
11 | O=C(O)C1=C(CSc2ccc(O)nn2)CSC2C(NC(=O)[C@H](NC(=O)c3cnc4cccnc4c3O)c3ccc(O)c(Cl)c3)C(=O)N12 (stereo partly drawn) [Example 149] |  |  |  |  |  |  |  |  | 6.25 (≈ 8.98 µM) | 0.39 (≈ 0.56 µM) | 3.13 (≈ 4.5 µM) | 25 (≈ 35.9 µM) | 6.25 (≈ 8.98 µM) | 6.25 (≈ 8.98 µM) | 0.78 (≈ 1.12 µM) | 3.13 (≈ 4.5 µM)
12 | O=C(O)C1=C(CSc2nnc(CO)s2)CSC2C(NC(=O)[C@H](NC(=O)c3cnc4cccnc4c3O)c3ccc(O)cc3)C(=O)N12 (stereo partly drawn) [Example 150] |  |  |  |  |  |  |  |  | 6.25 (≈ 9.17 µM) | 0.2 (≈ 0.293 µM) | 1.56 (≈ 2.29 µM) | 12.5 (≈ 18.3 µM) | 3.13 (≈ 4.59 µM) | 6.25 (≈ 9.17 µM) | 0.78 (≈ 1.14 µM) | 3.13 (≈ 4.59 µM)
13 | CN(C)c1ccc2ncc(C(=O)N[C@@H](C(=O)NC3C(=O)N4C(C(=O)O)=C(CSc5n[nH]c(=O)s5)CSC34)c3ccc(O)c(F)c3)c(O)c2n1 (stereo partly drawn) [Example 151] |  |  |  |  |  |  |  |  | 6.25 (≈ 8.58 µM) | 0.39 (≈ 0.535 µM) | 1.56 (≈ 2.14 µM) | 12.5 (≈ 17.2 µM) | 6.25 (≈ 8.58 µM) | 6.25 (≈ 8.58 µM) | 0.78 (≈ 1.07 µM) | 1.56 (≈ 2.14 µM)
14 | CNc1nnc(SCC2=C(C(=O)O)N3C(=O)C(NC(=O)[C@H](NC(=O)c4cnc5cccnc5c4O)c4ccc(O)cc4)C3SC2)s1 (stereo partly drawn) [Example 152] |  |  |  |  |  |  |  |  | 6.25 (≈ 9.18 µM) | 0.2 (≈ 0.294 µM) | 1.56 (≈ 2.29 µM) | 12.5 (≈ 18.4 µM) | 3.13 (≈ 4.6 µM) | 6.25 (≈ 9.18 µM) | 0.78 (≈ 1.15 µM) | 3.13 (≈ 4.6 µM)
15 | CSc1ccc2ncc(C(=O)N[C@@H](C(=O)NC3C(=O)N4C(C(=O)O)=C(CSc5nnc(CN)s5)CSC34)c3ccc(O)cc3)c(O)c2n1 (stereo partly drawn) [Example 153] |  |  |  |  |  |  |  |  | 6.25 (≈ 8.6 µM) | 0.39 (≈ 0.537 µM) | 3.13 (≈ 4.31 µM) | 25 (≈ 34.4 µM) | 6.25 (≈ 8.6 µM) | 6.25 (≈ 8.6 µM) | 0.78 (≈ 1.07 µM) | 3.13 (≈ 4.31 µM)
16 | Cn1nnnc1SCC1=C(C(=O)O)N2C(=O)C(NC(=O)[C@H](NC(=O)c3cnc4cncnc4c3O)c3ccc(O)cc3)C2SC1 (stereo partly drawn) [Example 154] |  |  |  |  |  |  |  |  | 12.5 (≈ 19.2 µM) | 0.39 (≈ 0.599 µM) | 6.25 (≈ 9.61 µM) | 12.5 (≈ 19.2 µM) | 3.13 (≈ 4.81 µM) | 6.25 (≈ 9.61 µM) | 0.78 (≈ 1.2 µM) | 3.13 (≈ 4.81 µM)
17 | O=C(O)C1=C(CSc2nnc(CO)s2)CSC2C(NC(=O)C(NC(=O)c3cnc4cncnc4c3O)c3cccc(O)c3)C(=O)N12 (stereo not drawn) [Example 155] |  |  |  |  |  |  |  |  | 12.5 (≈ 18.3 µM) | 0.78 (≈ 1.14 µM) | 6.25 (≈ 9.15 µM) | 12.5 (≈ 18.3 µM) | 3.13 (≈ 4.58 µM) | 6.25 (≈ 9.15 µM) | 0.78 (≈ 1.14 µM) | 3.13 (≈ 4.58 µM)
18 | Cc1nnc(SCC2=C(C(=O)O)N3C(=O)C(NC(=O)C(NC(=O)c4cnc5nc(N(C)C)ncc5c4O)c4ccc(O)c(O)c4)C3SC2)s1 (stereo not drawn) [Example 156] |  |  |  |  |  |  |  |  | 12.5 (≈ 17.2 µM) | 0.78 (≈ 1.07 µM) | 6.25 (≈ 8.61 µM) | 50 (≈ 68.9 µM) | 6.25 (≈ 8.61 µM) | 12.5 (≈ 17.2 µM) | 1.56 (≈ 2.15 µM) | 6.25 (≈ 8.61 µM)
